From ChEMBL document CHEMBL2021765, “Design and synthesis of thiourea derivatives containing a benzo[5,6]cyclohepta[1,2-b]pyridine moiety as potential antitumor and anti-inflammatory agents” (Bioorg Med Chem Lett, 2012)

What was measured:
MCF7 = test: cells; assay type: functional, cell-based; settings: Homo sapiens, MCF7, 144 h
Description: Antiproliferative activity against human MCF7 cells assessed as growth inhibition after 144 hrs by crystal violet staining method

Mus musculus [1] = test: Antiinflammatory activity in overnight fasted Kunming mouse assessed as inhibition of xylene-induced ear swelling at 4 mg/kg, ip administered before challenge for 5 days measured 1 hr post xylene challenge; assay type: functional; settings: route intraperitoneal
MDA-MB-231 = test: cells; assay type: functional, cell-based; settings: Homo sapiens, MDA-MB-231, 144 h
Description: Antiproliferative activity against human MDA-MB-231 cells assessed as growth inhibition after 144 hrs by crystal violet staining method

HT-29 = test: cells; assay type: functional, cell-based; settings: Homo sapiens, HT-29, 144 h
Description: Antiproliferative activity against human HT-29 cells assessed as growth inhibition after 144 hrs by crystal violet staining method

[2] = target: T1, Prostaglandin G/H synthase 1 (Ovis aries) (UniProt P05979); test: Inhibition of ovine COX1 at 10 uM by ELISA
T1 sequence (whole entry): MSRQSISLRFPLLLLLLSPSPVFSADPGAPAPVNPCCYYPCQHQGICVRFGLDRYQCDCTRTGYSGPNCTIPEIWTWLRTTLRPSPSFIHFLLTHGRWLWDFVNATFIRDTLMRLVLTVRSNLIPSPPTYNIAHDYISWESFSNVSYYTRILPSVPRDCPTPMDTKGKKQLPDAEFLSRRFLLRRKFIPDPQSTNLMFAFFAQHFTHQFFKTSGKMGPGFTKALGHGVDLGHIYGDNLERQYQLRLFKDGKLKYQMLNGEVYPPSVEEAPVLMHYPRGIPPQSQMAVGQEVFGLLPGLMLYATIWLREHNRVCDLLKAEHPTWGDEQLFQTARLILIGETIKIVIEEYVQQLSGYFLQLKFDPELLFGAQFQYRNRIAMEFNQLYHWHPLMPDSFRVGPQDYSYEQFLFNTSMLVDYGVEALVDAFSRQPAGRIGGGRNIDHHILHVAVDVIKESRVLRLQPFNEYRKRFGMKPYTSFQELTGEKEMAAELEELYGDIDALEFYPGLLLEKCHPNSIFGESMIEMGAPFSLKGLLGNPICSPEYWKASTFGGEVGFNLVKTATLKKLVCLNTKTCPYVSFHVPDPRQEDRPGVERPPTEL

Mus musculus [3] = test: Antiinflammatory activity in overnight fasted Kunming mouse assessed as inhibition of xylene-induced ear swelling at 30 mg/kg, ip administered before challenge for 5 days measured 1 hr post xylene challenge; assay type: functional; settings: route intraperitoneal

CNC(=S)N1CCC(=C2c3ccc(Cl)cc3CCc3cccnc32)CC1
IC50 (MCF7): 9.4 µM | inhibition in vivo at 4 mg/kg (Mus musculus [1]): 26.1% | IC50 (MDA-MB-231): 7.1 µM | IC50 (HT-29): 9.6 µM

CCOC(=O)N1CCC(=C2c3ccc(Cl)cc3CCc3cccnc32)CC1 [LORATADINE]
IC50 (MCF7): 7.5 µM | IC50 (MDA-MB-231): 8.4 µM | IC50 (HT-29): 6.2 µM

COc1ccccc1NC(=S)N1CCC(=C2c3ccc(Cl)cc3CCc3cccnc32)CC1
IC50 (MCF7): 7.6 µM | inhibition in vivo at 4 mg/kg (Mus musculus [1]): 21.7% | IC50 (MDA-MB-231): 10.4 µM | IC50 (HT-29): 9.2 µM

S=C(Nc1ccccc1)N1CCC(=C2c3ccc(Cl)cc3CCc3cccnc32)CC1
IC50 (MCF7): 5.6 µM | inhibition in vivo at 4 mg/kg (Mus musculus [1]): 21.7% | IC50 (MDA-MB-231): 6.4 µM | IC50 (HT-29): 6.7 µM

CC(=O)Oc1ccccc1C(=O)O
inhibition [2]: 29%

CC(C)Cc1ccc(C(C)C(=O)O)cc1 (stereo not drawn) [IBUPROFEN]
inhibition in vivo at 4 mg/kg (Mus musculus [1]): 8.69% | inhibition in vivo at 30 mg/kg (Mus musculus [3]): 39.1%

S=C(NC1CCCCC1)N1CCC(=C2c3ccc(Cl)cc3CCc3cccnc32)CC1
IC50 (MCF7): 5.1 µM | inhibition [2]: 11.6% | inhibition in vivo at 4 mg/kg (Mus musculus [1]): 30.4% | IC50 (MDA-MB-231): 8.1 µM | IC50 (HT-29): 6.2 µM

Cc1ccccc1NC(=S)N1CCC(=C2c3ccc(Cl)cc3CCc3cccnc32)CC1
IC50 (MCF7): 5.4 µM | inhibition in vivo at 4 mg/kg (Mus musculus [1]): 13% | IC50 (MDA-MB-231): 4.7 µM | IC50 (HT-29): 6.6 µM

O=c1[nH]cc(F)c(=O)[nH]1 [FLUOROURACIL]
IC50 (MCF7): 4.7 µM
